Active and inactive are the calls of the source. Rule as the data show it, for most assays here: actives have a measured EC50 and inactives only a lower limit.
Columns and labels:
H4 = assay: Luminescence Cell-Based Dose Response HTS to Identify Activators of 5'UTR Stem-Loop Driven Prion Protein mRNA Translation in H4 Neuroglioblastoma Cells. [Related pubchem assays: 1829 (Project Summary), 1814 (Primary HTS)]; type: functional; conditions: Homo sapiens
[1] = Luminescence Cell-Based Dose Response HTS to Identify Activators of Luciferase Translation or Activity in H4 […] Cells. [Related pubchem assays: 1829 (Project Summary), 1814 (Primary HTS)]; type: functional
[2] = target: Luciferin 4-monooxygenase (Photinus pyralis, UniProt P08659); assay: firefly luciferase enzyme inhibitors, dose response, biochemical, luminescence (AID 1891)
Chain of Luciferin 4-monooxygenase (P08659 whole entry): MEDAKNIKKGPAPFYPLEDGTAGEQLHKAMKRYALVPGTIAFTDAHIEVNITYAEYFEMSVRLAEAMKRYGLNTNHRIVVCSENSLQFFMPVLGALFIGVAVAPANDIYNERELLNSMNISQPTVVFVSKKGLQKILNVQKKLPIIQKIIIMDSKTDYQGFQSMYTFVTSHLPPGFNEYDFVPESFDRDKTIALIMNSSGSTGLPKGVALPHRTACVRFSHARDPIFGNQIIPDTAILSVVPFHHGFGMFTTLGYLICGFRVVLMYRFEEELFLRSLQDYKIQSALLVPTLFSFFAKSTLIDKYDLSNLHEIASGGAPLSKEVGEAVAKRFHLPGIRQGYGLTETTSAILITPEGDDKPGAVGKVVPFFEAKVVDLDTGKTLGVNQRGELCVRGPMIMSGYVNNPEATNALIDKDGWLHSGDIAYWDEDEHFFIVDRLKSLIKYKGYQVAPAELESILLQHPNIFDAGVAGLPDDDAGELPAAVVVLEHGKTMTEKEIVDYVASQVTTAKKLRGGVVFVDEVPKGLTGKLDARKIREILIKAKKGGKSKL

[3] = Luminescence Cell-Based Dose Confirmation HTS to Identify Inhibitors of Platelet Dense Granule Release. [Related pubchem assays: 1663 (Primary HTS), 1678 (Summary of Project)]; type: functional
[4] = target: T1, Corticotropin-releasing factor receptor 2/Corticotropin-releasing factor-binding protein (Homo sapiens, UniProt P24387+Q13324); assay: activators of CRF receptor 2 with binding protein – uHTS hits, confirmation (AID 602473); type: functional; conditions: read-out: EC50_Mean
T1 sequence (Q13324 whole entry): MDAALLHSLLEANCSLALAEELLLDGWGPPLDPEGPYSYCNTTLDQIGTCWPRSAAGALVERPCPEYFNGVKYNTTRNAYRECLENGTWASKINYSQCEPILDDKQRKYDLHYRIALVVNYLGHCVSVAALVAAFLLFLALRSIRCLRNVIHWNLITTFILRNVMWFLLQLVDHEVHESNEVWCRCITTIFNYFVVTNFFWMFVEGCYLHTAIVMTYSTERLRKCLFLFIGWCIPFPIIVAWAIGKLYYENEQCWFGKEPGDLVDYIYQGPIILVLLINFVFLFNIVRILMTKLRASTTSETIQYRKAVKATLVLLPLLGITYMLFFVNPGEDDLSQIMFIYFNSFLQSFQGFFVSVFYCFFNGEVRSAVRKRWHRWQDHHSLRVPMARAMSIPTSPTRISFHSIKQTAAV
T1 sequence (P24387 whole entry): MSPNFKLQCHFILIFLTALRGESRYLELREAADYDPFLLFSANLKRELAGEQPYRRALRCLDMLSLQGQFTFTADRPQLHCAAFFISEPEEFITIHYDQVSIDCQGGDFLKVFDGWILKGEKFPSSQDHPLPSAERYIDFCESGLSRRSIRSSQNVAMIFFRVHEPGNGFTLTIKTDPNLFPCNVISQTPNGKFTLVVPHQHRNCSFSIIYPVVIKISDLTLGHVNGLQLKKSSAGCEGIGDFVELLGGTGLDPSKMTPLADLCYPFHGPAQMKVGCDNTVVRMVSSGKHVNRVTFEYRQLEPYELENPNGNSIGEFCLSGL

Cytochrome P450 3A4 = Cytochrome P450 3A4 (Homo sapiens, UniProt P08684);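 also: CYP3A4 tested as one member of a cytochrome P450 panel screen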
Chain of Cytochrome P450 3A4 (P08684 whole entry, the tested form may be a part): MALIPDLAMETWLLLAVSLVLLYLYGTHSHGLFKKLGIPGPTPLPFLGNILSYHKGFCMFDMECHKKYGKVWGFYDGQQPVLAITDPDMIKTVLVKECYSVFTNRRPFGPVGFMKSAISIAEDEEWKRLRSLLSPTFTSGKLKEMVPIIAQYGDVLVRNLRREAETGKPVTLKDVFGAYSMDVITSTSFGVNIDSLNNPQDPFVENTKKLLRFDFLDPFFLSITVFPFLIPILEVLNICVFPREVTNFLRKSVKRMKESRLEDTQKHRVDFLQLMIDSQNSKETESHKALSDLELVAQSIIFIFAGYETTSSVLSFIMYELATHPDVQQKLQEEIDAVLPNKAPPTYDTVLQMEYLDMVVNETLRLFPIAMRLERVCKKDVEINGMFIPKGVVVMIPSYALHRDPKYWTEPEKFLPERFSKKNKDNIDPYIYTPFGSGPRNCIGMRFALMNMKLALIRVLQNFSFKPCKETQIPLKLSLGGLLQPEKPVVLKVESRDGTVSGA

[5] = target: T2, RNA-binding protein pos-1 (Caenorhabditis elegans, UniProt G5EF15); assay: inhibitors of POS-1/mex-3 RNA binding, dose response, biochemical, fluorescence polarization (AID 1964);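 also: purified POS-1 fused to maltose binding protein made in E. coli; potency of compounds blocking POS-1 binding to fluorescent RNA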
T2 sequence (G5EF15 whole entry): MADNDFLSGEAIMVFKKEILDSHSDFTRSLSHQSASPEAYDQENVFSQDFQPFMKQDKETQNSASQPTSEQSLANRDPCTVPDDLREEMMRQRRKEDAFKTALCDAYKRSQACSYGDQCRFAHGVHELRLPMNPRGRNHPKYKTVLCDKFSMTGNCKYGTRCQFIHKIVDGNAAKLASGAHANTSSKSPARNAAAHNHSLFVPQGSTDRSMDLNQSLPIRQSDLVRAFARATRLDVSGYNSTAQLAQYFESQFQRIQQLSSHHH

[6] = target: T3, Zinc finger protein mex-5 (Caenorhabditis elegans, UniProt Q9XUB2); assay: MEX-5/TCR-2 RNA interaction inhibitors, dose response, biochemical, C. elegans, fluorescence polarization (AID 1960)
T3 sequence (Q9XUB2 whole entry): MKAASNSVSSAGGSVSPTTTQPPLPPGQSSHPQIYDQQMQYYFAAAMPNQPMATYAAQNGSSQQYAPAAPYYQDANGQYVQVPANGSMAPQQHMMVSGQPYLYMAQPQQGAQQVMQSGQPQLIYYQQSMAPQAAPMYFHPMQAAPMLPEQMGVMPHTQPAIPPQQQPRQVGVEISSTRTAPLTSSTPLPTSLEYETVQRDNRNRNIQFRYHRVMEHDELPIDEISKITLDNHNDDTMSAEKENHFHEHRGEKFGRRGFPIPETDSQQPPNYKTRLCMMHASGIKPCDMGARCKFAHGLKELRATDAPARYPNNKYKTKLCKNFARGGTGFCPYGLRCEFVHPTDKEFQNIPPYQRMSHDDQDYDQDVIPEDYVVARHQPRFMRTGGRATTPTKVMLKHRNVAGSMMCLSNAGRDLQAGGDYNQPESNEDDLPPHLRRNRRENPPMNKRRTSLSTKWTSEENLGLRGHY

[7] = inhibitors of SNCA 5'UTR-driven reporter translation, confirmation, H4 neuroglioma cells, luminescence (AID 1988); type: functional, cell-based
[8] = inhibitors of intracellular T. cruzi replication, confirmation, NIH3T3 host cells, beta-gal luminescence (AID 2044); type: functional, cell-based;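 also: intracellular parasites grown in NIH/3T3 mouse fibroblasts as host cells; luminescent beta-galactosidase reporter signal from transgenic T. cruzi replicating inside host cells; inhibitors lower the luminescence signal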
[9] = Luminescence Cell-Based Dose Response HTS to Identify Inhibitors of 5'UTR Stem-Loop Driven Prion Protein mRNA Translation in H4 Neuroglioblastoma Cells. [Related pubchem assays: 1827 (Project Summary), 1813 (Primary HTS)]; type: functional
[10] = inhibitors of firefly luciferase expression or activity, dose response, H4 neuroglioma cells, luminescence (AID 1990); type: functional, cell-based
[11] = cytotoxicity toward NIH3T3 fibroblasts, dose response, counter-screen, cell-based, ATP luminescence, mouse fibroblasts (AID 2010); type: functional;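 also: cells exposed to compound for about 90 hours before reading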
[12] = target: FAD-linked sulfhydryl oxidase ALR (Homo sapiens, UniProt P55789); assay: inhibitors of human ALR sulfhydryl oxidase, dose response, biochemical, H2O2 detection, luminescence, cherry-pick (AID 493248)
Chain of FAD-linked sulfhydryl oxidase ALR (P55789 whole entry): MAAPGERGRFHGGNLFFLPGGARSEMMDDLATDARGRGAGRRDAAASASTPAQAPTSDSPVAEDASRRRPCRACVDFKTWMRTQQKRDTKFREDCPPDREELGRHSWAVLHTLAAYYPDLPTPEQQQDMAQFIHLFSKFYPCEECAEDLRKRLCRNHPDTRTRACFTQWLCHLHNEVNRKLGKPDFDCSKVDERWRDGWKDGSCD

Cytochrome P450 2C9 = Cytochrome P450 2C9 (Homo sapiens, UniProt P11712)
Chain of Cytochrome P450 2C9 (P11712 whole entry): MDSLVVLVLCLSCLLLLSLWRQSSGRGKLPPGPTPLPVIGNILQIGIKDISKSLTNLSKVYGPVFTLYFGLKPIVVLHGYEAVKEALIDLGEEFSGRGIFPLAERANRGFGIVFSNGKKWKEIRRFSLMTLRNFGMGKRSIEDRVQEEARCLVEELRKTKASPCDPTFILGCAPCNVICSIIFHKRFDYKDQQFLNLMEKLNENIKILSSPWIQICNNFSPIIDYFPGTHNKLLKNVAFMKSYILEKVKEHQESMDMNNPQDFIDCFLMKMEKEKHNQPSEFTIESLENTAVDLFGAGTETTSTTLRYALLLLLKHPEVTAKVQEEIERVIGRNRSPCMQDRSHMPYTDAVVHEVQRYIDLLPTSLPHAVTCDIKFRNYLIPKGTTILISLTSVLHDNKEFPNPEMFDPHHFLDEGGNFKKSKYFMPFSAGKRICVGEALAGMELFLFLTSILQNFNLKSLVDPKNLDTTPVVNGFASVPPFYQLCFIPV

[13] = target: T4, Rac GTPase-activating protein 1 (Homo sapiens, UniProt Q9H0H5); assay: MgcRacGAP GTPase-activating activity inhibitors, confirmation, biochemical, ADP Hunter fluorescence, primary and confirmatory (AID 624330); type: functional
T4 sequence (Q9H0H5 whole entry): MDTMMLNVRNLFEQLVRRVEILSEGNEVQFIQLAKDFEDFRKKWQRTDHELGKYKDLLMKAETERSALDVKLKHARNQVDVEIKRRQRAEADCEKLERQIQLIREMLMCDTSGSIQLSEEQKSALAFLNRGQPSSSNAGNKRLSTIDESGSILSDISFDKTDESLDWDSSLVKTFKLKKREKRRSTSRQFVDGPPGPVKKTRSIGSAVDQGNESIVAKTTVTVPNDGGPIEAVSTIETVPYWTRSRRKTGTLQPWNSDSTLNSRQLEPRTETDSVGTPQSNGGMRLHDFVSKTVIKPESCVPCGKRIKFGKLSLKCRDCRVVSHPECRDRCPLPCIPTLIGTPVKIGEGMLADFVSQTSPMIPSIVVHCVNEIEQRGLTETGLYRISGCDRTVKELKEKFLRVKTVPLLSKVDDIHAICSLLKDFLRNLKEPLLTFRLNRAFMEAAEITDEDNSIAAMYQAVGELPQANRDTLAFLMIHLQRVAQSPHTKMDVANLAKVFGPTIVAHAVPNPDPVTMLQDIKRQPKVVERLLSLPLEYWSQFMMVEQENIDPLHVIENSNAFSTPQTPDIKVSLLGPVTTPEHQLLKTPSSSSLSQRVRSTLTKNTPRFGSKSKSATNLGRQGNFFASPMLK

O=C(c1ccc(Cl)s1)N1CCc2ccccc21
EC50 (H4): 56.2 µM (inconclusive)
EC50 [1]: 0.124 µM (active)

CC(=O)Nc1ccc2nc(NC(=O)c3cccs3)sc2c1
EC50 [2]: 2.26 µM (active)
EC50 [3]: 6.27 µM (active)

CCn1c2ccccc2c2cc(NC(=O)CSc3nnc(-c4cccc(Cl)c4)o3)ccc21
EC50 [2]: > 112 µM (not active)
EC50 [3]: > 112 µM (not active)

COc1cc(/C=C(\C#N)C(=O)NCCc2ccccc2)cc(OC)c1O
EC50 [4]: > 53 µM (inactive)

Cc1[nH]cnc1C(=O)N/N=C/c1c(Cl)cccc1Cl
EC50 [2]: 4.22 µM (active)
EC50 [3]: 1.54 µM (active)

COC(=O)[C@H](N)Cc1ccc(Cl)cc1
AC50 (Cytochrome P450 3A4): 31.6 µM (inconclusive)

O=CN/N=C/c1c(O)ccc2ccccc12
EC50 [5]: > 300 µM (not active)
EC50 [6]: 5.35 µM (active)

COc1cccc(C2(O)CCN(CC(=O)Nc3nc(C)cs3)CC2)c1
EC50 [5]: > 300 µM (not active)
EC50 [6]: > 300 µM (not active)

CCOC(=O)c1ccc(-n2c(CCC(=O)O)ccc2-c2ccccc2)cc1
EC50 [5]: > 300 µM (not active)
EC50 [6]: > 300 µM (not active)

O=C(CN(c1ccc(Cl)cc1)S(=O)(=O)c1ccc(Cl)c([N+](=O)[O-])c1)NCCc1ccccc1
EC50 [7]: 9.06 µM (active)
EC50 [8]: 3.56 µM (active)
EC50 [9]: 8.52 µM (active)
EC50 [10]: > 120 µM (not active)
EC50 [11]: > 60 µM (not active)

Oc1c(/C=N/c2ccccc2Cl)[nH]c2ccccc12
EC50 [5]: > 300 µM (not active)
EC50 [6]: > 300 µM (not active)

CC(=O)N(C)c1ccc(/N=N/c2c(C)[nH]n(C(N)=S)c2=O)cc1
EC50 [5]: > 300 µM (not active)
EC50 [6]: 24.2 µM (active)

CC(=O)N1N=C2C3CCN(CC3)C2C1c1cccc2ccccc12 (configuration not stated)
EC50 [4]: > 53 µM (inactive)

Cc1onc(-c2c(F)cccc2Cl)c1C(=O)N1CCCc2ccccc21
EC50 [5]: > 300 µM (not active)
EC50 [6]: > 300 µM (not active)

CC1CCCCN1S(=O)(=O)c1ccc(S(=O)(=O)N(CC(=O)Nc2ccccc2)Cc2cccs2)cc1 (configuration not stated)
EC50 [2]: > 112 µM (not active)
EC50 [3]: > 112 µM (not active)
EC50 [8]: 1.7 µM (active)
EC50 [11]: > 60 µM (inconclusive)

C/C(=N\C1CCCC1)c1c(C)[nH]n(-c2nc3ccccc3s2)c1=O
AC50 [12]: 1.24 µM (active)
EC50 [5]: > 300 µM (not active)
EC50 [6]: > 300 µM (not active)

Cc1ccc(-n2nnnc2SCCNS(=O)(=O)c2ccccc2)cc1C
EC50 [7]: > 120 µM (not active)
EC50 [9]: 20.5 µM (active)
EC50 [10]: > 120 µM (not active)

CC(C)(C)Nc1nc(N2CCCC2)nc(N2CCCC2)n1
EC50 [7]: 16.7 µM (active)
AC50 (Cytochrome P450 2C9): 5.01 µM (inconclusive)
EC50 [9]: 19.6 µM (active)
EC50 [10]: 16.7 µM (active)

Cc1nc2cc(-c3cccc(F)c3)nn2c(C)c1CCC(=O)N1CCN(c2ccccn2)CC1
EC50 [7]: 12.4 µM (active)
EC50 [9]: 14.1 µM (active)
EC50 [10]: 11.9 µM (active)

COc1cc(OC)cc(C(=O)Nc2ccc(S(=O)(=O)Nc3cc(C)nc(C)n3)cc2)c1
AC50 [12]: 1.68 µM (active)

COCCNC(=O)/C(C#N)=C/c1ccc(O)cc1
EC50 [2]: 4.8 µM (active)
EC50 [3]: 1.62 µM (active)

CC(C)Oc1ccc(N2CC(C(=O)Nc3ccc(N4CCOCC4)cc3)CC2=O)cc1 (configuration not stated)
EC50 [2]: > 112 µM (not active)
EC50 [3]: > 112 µM (not active)

N#CC(C#N)=Cc1ccc(-c2ccc(S(=O)(=O)NC(=N)N)cc2)o1
EC50 [5]: > 300 µM (not active)
EC50 [6]: 236 µM (active)

Cc1ccc(-c2cn3c(n2)SCC3)cc1
AC50 [12]: 0.513 µM (active)

CC1CCN(C(=S)c2ccc(N(C)C)cc2)CC1
AC50 [12]: 0.915 µM (active)

CCN(CC)c1ccc(NC(=O)CN2CCN(c3nc(C)cc(C)n3)CC2)cc1
AC50 [12]: 1.03 µM (active)

Cc1cc2c(cc(C(=O)O)n2C)s1
AC50 [12]: 30.9 µM (active)

COc1cc(C)c(N)cc1C(C)C
IC50 [13]: 113 µM (active)
AC50 [12]: 0.027 µM (active)
EC50 [8]: 16.9 µM (active)
EC50 [11]: > 60 µM (not active)

Cc1ccc2nc(C)cc(N/N=C/c3ccccc3O)c2c1
AC50 [12]: 4.03 µM (active)

N#CC1=C(N)C(C#N)(C#N)C(c2cccnc2)C2CCCC=C12 (configuration not stated)
EC50 [5]: 22.2 µM (active)
EC50 [6]: 17.5 µM (active)

CCCCC1=CC2=CC(=O)C(C)(OC(=O)c3cnc4ccccc4n3)C(=O)C2=CO1 (configuration not stated)
EC50 [5]: 19.9 µM (active)
EC50 [6]: 19 µM (active)

CN1CCC(NC(=O)Nc2cccc(C(F)(F)F)c2)CC1
EC50 [2]: > 112 µM (not active)
EC50 [3]: > 112 µM (not active)

CNc1nc2c3ccccc3n(C(C)=O)c2s1
IC50 [13]: 184 µM (active)
EC50 [2]: > 112 µM (not active)
EC50 [3]: > 112 µM (not active)

CC(=O)NCCNc1ccc([N+](=O)[O-])cc1C#N
EC50 [5]: > 300 µM (not active)
EC50 [6]: > 300 µM (not active)

CSc1ccc(/C=N/NC(=O)c2ccc(O)cc2)cc1
EC50 [2]: 1.57 µM (active)
EC50 [3]: 13.9 µM (active)

Cc1c(Cl)ccc2sc(NC(=O)C3CC3)nc12
EC50 [2]: > 112 µM (not active)
EC50 [3]: > 112 µM (not active)

Oc1ccccc1-c1nnc(S)n1Cc1ccco1
AC50 [12]: 4.75 µM (active)

Source: ChEMBL document CHEMBL1201862, “PubChem BioAssay data set” (2004)
